Here are results for 23 compounds from patent US20060178374A1, “Aminoheteroaryl compounds as protein kinase inhibitors” (AGOURON PHARMACEUTICALS, INC., priority 2004, published 2006).

SMILES strings stand for the structures.

HGFR (c-Met), sequence (P08581 974-1390): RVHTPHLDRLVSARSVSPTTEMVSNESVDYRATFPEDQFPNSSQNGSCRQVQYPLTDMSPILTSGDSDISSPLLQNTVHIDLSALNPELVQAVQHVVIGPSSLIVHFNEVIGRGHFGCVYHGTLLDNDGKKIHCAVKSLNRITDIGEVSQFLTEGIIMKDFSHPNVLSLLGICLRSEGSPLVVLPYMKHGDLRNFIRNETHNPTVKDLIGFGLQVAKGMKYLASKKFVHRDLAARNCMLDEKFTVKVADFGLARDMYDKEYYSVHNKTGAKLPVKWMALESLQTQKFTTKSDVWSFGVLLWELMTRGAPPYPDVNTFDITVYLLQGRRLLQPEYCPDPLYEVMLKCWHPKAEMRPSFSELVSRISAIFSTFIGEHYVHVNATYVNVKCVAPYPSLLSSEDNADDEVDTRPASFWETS

One test addresses HGFR (c-Met) (Homo sapiens, UniProt P08581). Kind of test: HGFR Continuous-Coupled Spectrophotometric Assay. The test is classed as biochemical. The note with it: HGFR enzyme 50 nM, Met-2 peptide substrate, 37° C. The procedure:
The general procedure is as follows: compounds and kinase assay reagents are introduced into test wells. The assay is initiated by addition of the kinase enzyme. Enzyme inhibitors reduce the measured activity of the enzyme.
In the continuous-coupled spectrophotometric assay the time-dependent production of ADP by the kinase is determined by analysis of the rate of consumption of NADH by measurement of the decrease in absorbance at 340 nm. As the PK produces ADP it is re-converted to ATP by reaction with phosphoenol pyruvate and pyruvate kinase. Pyruvate is also produced in this reaction. Pyruvate is subsequently converted to lactate by reaction with lactate dehydrogenase, which simultaneously converts NADH to NAD.
HGFR Continuous-Coupled Spectrophotometric Assay
This assay analyzes the tyrosine kinase activity of HGFR on the Met-2 substrate peptide, a peptide derived from the activation loop of the HGFR.
• 1. […] Dissolve up in 200 mM HEPES, pH 7.5 at 10 mM stock. • 3. 1 M PEP (phospho-enol-pyruvate) in 200 mM HEPES, pH 7.5 • 4. 100 mM NADH (B-Nicotinamide Adenine Dinucleotide, Reduced Form) in 200 mM HEPES, pH 7.5 • 5. 4 M MgCl2 (Magnesium Chloride) in ddH2O 6. 1 M DTT (Dithiothreitol) in 200 mM HEPES, pH 7.5 • 7. 15 Units/mL LDH (Lactic Dehydrogenase) • 8. 15 Units/mL PK (Pyruvate Kinase) • 9. 5M NaCl dissolved in ddH2O • 10. Tween-20 (Protein Grade) 10% Solution • 11. 1 M HEPES buffer: (N-[2-Hydroxethyl]piperazine-N-[2-ethanesulfonic acid]) Sodium Salt. Dissolve in ddH2O, adjust pH to 7.5, bring volume to 1 L. Filter at 0.1 μm. • 12. […] 100% DMSO (SIGMA) • 14. […] Beckman DU-650 w/ micro cell holders • 18. Beckman 4-position micro cell cuvette Procedure:
Prep Dilution Buffer (DB) for Enzyme (For 30 mL prep) • 1. DB final concentration is 2 mM DTT, 25 mM NaCl2, 5 mM MgCl2, 0.01% Tween-20, and 50 mM HEPES buffer, pH 7.5. • 2. Make up 50 mM HEPES by adding 1.5 mL 1 M HEPES into 28.1 mL of ddH2O. Add rest of the reagents. Into 50 mL conical vial, add 60 μL of 1M DTT, 150 μL 5M NaCl2, 150 μL 1M MgCl2, and 30 μL of 10% Tween-20 to give total volume of 30 mL. • 3. Vortex for 5-10 seconds. • 4. Aliquot out DB at 1 mL/tube and label tubes as “DB HGFR” • 5. Note: This can be prepared and stored ahead of time. • 6. Freeze un-used aliquots in microcentrifuge tubes at −20° C. freezer.
Prep Compounds • 1. For compound dilution plate, add 4 μL of 10 mM stock into column 1 of plate, and bring volume to 100 μL with 100% DMSO. • 2. Set up the Precision 2000 dilution method. A final concentration of 200 μM compound in 50% DMSO, 100 mM HEPES (1:2 serial dilution).
Prep Coupled Enzymatic Buffer:
1. Final concentration in assay:
• 2. For a 10 mL reaction buffer add 10 μL of 1M PEP, 33 μL of 100 mM NADH, 50 μL of 4M MgCl2, 20 μL of 1M DTT, 6 μL of 500 mM ATP, and […] of 10 mM Met-2 peptide into 100 mM HEPES buffer pH 7.5 and vortex/mix. • 3. Add coupling enzymes, LDH and PK, into reaction mix. Mix by gentle inversion.
1. Spectrophotometer settings:
• 2. Add 85 μL of CE reaction mix into each well of assay plate. • 3. Add 5 μL of diluted compound into a well of the assay plate. • 4. Add 5 μL of 50% DMSO for negative control into last column of assay plate. • 5. Mix with multi-channel pipettor or orbital shaker. • 6. Pre-incubate for 10 minutes at 37° C. • 7. Add 10 μL of 500 nM HGFR to each well of assay plate; the final HGFR concentration is 50 nM in a total final volume of 100 μL. • 8. Measure activity for 10 minutes at λ=340 nm and 37° C.
Ki data were obtained using the HGFR Continuous-Coupled Spectrophotometric Assay, and IC50 data were obtained using the Cellular HGFR Autophosphorylation Assay, both of which are described above.
`COC(=O)c1n[nH]c2cc(-c3cnc(N)c(OC(C)c4c(Cl)ccc(F)c4Cl)c3)ccc12` (stereo not drawn) [Example 106, methyl 6-{6-amino-5-[1-(2,6-dichloro-3-fluorophenyl)ethoxy]pyridin-3-yl}-1H-indazole-3-carboxylate]: the Ki (in general, a measure of affinity in units of concentration, obtained from inhibition or displacement) came to 44 nM.
For `CC(Oc1cc(-c2ccc(C(=O)N3CCC(N4CCCC4)CC3)cc2)cnc1N)c1c(Cl)ccc(Cl)c1F` (stereo not drawn) [Example 96, (4-{6-Amino-5-[1-(3,6-dichloro-2-fluoro-phenyl)-ethoxy]-pyridin-3-yl}-phenyl)-(4-pyrrolidin-1-yl-piperidin-1-yl)-methanone], the affinity, expressed as Ki, was 217 nM.
`CC(Oc1cc(-c2ccc(CO)cc2)cnc1N)c1c(Cl)ccc(F)c1Cl` (stereo not drawn) [Example 130, (4-{6-amino-5-[1-(2,6-dichloro-3-fluorophenyl)ethoxy]pyridin-3-yl}phenyl)methanol] registered an inhibition constant Ki of 71 nM. Against the preceding compound, the Ki is about 3.1-fold lower.
On to `CC(Oc1cc(-c2cccc(CNC(=O)CN(C)C)c2)cnc1N)c1c(Cl)ccc(F)c1Cl` (stereo not drawn) [Example 70, N-(3-{6-Amino-5-[1-(2,6-dichloro-3-fluoro-phenyl)-ethoxy]-pyridin-3-yl}-benzyl)-2-dimethylamino-acetamide], for which the affinity corresponds to a Ki of 52 nM. This Ki and that of the compound before are within 1.5-fold of each other.
For the compound `CC(Oc1cc(-c2cccc(CNC(=O)CCN)c2)cnc1N)c1c(Cl)ccc(F)c1Cl` (stereo not drawn) [Example 72, 3-Amino-N-(3-{6-amino-5-[1-(2,6-dichloro-3-fluoro-phenyl)-ethoxy]-pyridin-3-yl}-benzyl)-propionamide], the Ki came to 49 nM.
Same read-out and setting: next, `CC(Oc1cc(-c2ccc(CC(=O)N3CCC(N)C3)cc2)cnc1N)c1c(Cl)ccc(F)c1Cl` (stereo not drawn) [Example 99, 2-(4-{6-Amino-5-[1-(2,6-dichloro-3-fluoro-phenyl)-ethoxy]-pyridin-3-yl}-phenyl)-1-(3-amino-pyrrolidin-1-yl)-ethanone]: 40 nM; `CC(C)NC(=O)CN1CCN(C(=O)c2ccc(-c3cnc(N)c(OC(C)c4c(Cl)ccc(F)c4Cl)c3)cc2)CC1` (stereo not drawn) [Example 3, 2-[4-(4-{6-Amino-5-[1-(2,6-dichloro-3-fluorophenyl)ethoxy]pyridin-3-yl}benzoyl)piperazin-1-yl]-N-isopropylacetamide]: 26 nM.
Still for that read-out and setting: the same measure for `CC(Oc1cc(-c2ccc(C3(C#N)CCNCC3)cc2)cnc1N)c1c(Cl)ccc(F)c1Cl` (stereo not drawn) [Example 152, 4-(4-{6-amino-5-[1-(2,6-dichloro-3-fluorophenyl)ethoxy]pyridin-3-yl}phenyl) piperidine-4-carbonitrile]: 12 nM; for `CC(Oc1cc(-c2ccc(C(=O)N(C)CCC#N)cc2)cnc1N)c1c(Cl)ccc(F)c1Cl` (stereo not drawn) [Example 2, 4-{6-Amino-5-[1-(2,6-dichloro-3-fluorophenyl)ethoxy]pyridin-3-yl}-N-(2-cyanoethyl)-N-methylbenzamide]: 33 nM; for `CC(Oc1cc(-c2cncnc2)cnc1N)c1c(Cl)ccc(F)c1Cl` (stereo not drawn) [Example 113, 3-[1-(2,6-dichloro-3-fluorophenyl)ethoxy]-5-pyrimidin-5-ylpyridin-2-amine]: 360 nM.
Same read-out and setting: next, `CC(Oc1cc(-c2cnc(N3CCN(C(=O)OC(C)(C)C)CC3)nc2)cnc1N)c1c(Cl)ccc(F)c1Cl` (stereo not drawn) [Example 120, tert-butyl 4-(5-{6-amino-5-[1-(2,6-dichloro-3-fluorophenyl)ethoxy]pyridin-3-yl}pyrimidin-2-yl)piperazine-1-carboxylate]: 1000 nM; `CC(Oc1cc(-c2ccc(CO)nc2)cnc1N)c1c(Cl)ccc(F)c1Cl` (stereo not drawn) [Example 145, {6′-amino-5′-[1-(2,6-dichloro-3-fluorophenyl)ethoxy]-3,3′-bipyridin-6-yl}methanol]: 69 nM; `CC(Oc1cc(-c2cn(CCN3CCOCC3)cn2)cnc1N)c1c(Cl)ccc(F)c1Cl` (stereo not drawn) [Example 59, 3-[1-(2,6-Dichloro-3-fluoro-phenyl)-ethoxy]-5-[1-(2-morpholin-4-yl-ethyl)-1H-imidazol-4-yl]-pyridin-2-ylamine]: 155 nM.
`CC(Oc1cc(-c2ccc(C(=O)N3CC(N)C3)cc2)cnc1N)c1c(Cl)ccc(F)c1Cl` (stereo not drawn) [Example 112, 5-{4-[(3-aminoazetidin-1-yl)carbonyl]phenyl}-3-[1-(2,6-dichloro-3-fluorophenyl)ethoxy]pyridin-2-amine] gave a Ki of 18 nM.
`Cc1noc(C)c1-c1cnc(N)c(OC(C)c2c(Cl)ccc(F)c2Cl)c1` (stereo not drawn) [Example 109, 3-[1-(2,6-dichloro-3-fluoropheny)ethoxy]-5-(3,5-dimethylisoxazol-4-yl)pyridin-2-amine]: affinity was put at a Ki of 860 nM.
On the same count and under the same terms, the same measure for `COc1cc(-c2cnc(N)c(OC(C)c3c(Cl)ccc(F)c3Cl)c2)ccc1C(=O)N1CCNCC1` (stereo not drawn) [Example 28, 3-[1-(2,6-dichloro-3-fluorophenyl)ethoxy]-5-[3-methoxy-4-(piperazin-1-ylcarbonyl)phenyl]pyridin-2-amine]: 26.4 nM.
On the same count and under the same terms, the same measure for `CC(Oc1cc(-c2ccc(C(=O)N3CCC(N4CCCC4)CC3)cc2)cnc1N)c1cccc(C(=O)O)c1` (stereo not drawn) [Example 84, 3-(1-{2-Amino-5-[4-(4-pyrrolidin-1-yl-piperidine-1-carbonyl)-phenyl]-pyridin-3-yloxy}-ethyl)-benzoic acid]: 5480 nM.
The same measure, in the same setting: next, `CC(Oc1cc(-c2ccc(CC(=O)N3CC4C(N)C4C3)cc2)cnc1N)c1c(Cl)ccc(F)c1Cl` (stereo not drawn) [Example 101, 1-(6-Amino-3-aza-bicyclo[3.1.0]hex-3-yl)-2-(4-{6-amino-5-[1-(2,6-dichloro-3-fluoro-phenyl)-ethoxy]-pyridin-3-yl}-phenyl)-ethanone]: 39 nM.
`CC(Oc1cc(-c2ccc(N3CCC(O)CC3)nc2)cnc1N)c1c(Cl)ccc(F)c1Cl` (stereo not drawn) [Example 64, 6″-Amino-5″-[1-(2,6-dichloro-3-fluoro-phenyl)-ethoxy]-3,4,5,6-tetrahydro-2H-[1,2′;5′,3″]terpyridin-4-ol]: the Ki worked out at 19.3 nM. Against the preceding compound, the Ki is about 2-fold lower.
As for `CC(Oc1cc(-c2ccc(N3CCOCC3)nc2)cnc1N)c1c(Cl)ccc(F)c1Cl` (stereo not drawn) [Example 61, 5-[1-(2,6-Dichloro-3-fluoro-phenyl)-ethoxy]-6′-morpholin-4-yl-[3,3′]bipyridinyl-6-ylamine], the affinity, expressed as Ki, was 72 nM.
For `CC(Oc1cc(NC(=O)c2cnccn2)cnc1N)c1c(Cl)ccc(F)c1Cl` (stereo not drawn) [Example 93, Pyrazine-2-carboxylic acid {6-amino-5-[1-(2,6-dichloro-3-fluoro-phenyl)-ethoxy]-pyridin-3-yl}-amide], the affinity corresponds to a Ki of 1470 nM.
On the same count and under the same terms, the same measure for `COc1ccc(Cl)c(C(C)Oc2cc(-c3ccc(C(=O)N4CCNCC4)cc3)cnc2N)c1Cl` (stereo not drawn) [Example 80, (4-{6-Amino-5-[1-(2,6-dichloro-3-methoxy-phenyl)-ethoxy]-pyridin-3-yl}-phenyl)-piperazin-1-yl-methanone]: 6 nM.
On the same count and under the same terms, the same measure for `Cc1[nH]c(C(=O)NCCCN(C)C)c(C)c1-c1cnc(N)c(OC(C)c2c(Cl)ccc(F)c2Cl)c1` (stereo not drawn) [Example 43, 4-{6-Amino-5-[1-(2,6-dichloro-3-fluoro-phenyl)-ethoxy]-pyridin-3-yl}-3,5-dimethyl-1H-pyrrole-2-carboxylic acid (3-dimethylamino-propyl)-amide]: 451 nM.

Staying with this test, now noted: compound at 1 μM.
In the case of `CC(Oc1cc(-c2ccc(C(=O)N(C)CCC#N)cc2)cnc1N)c1c(Cl)ccc(F)c1Cl` (stereo not drawn) [Example 2, 4-{6-Amino-5-[1-(2,6-dichloro-3-fluorophenyl)ethoxy]pyridin-3-yl}-N-(2-cyanoethyl)-N-methylbenzamide], testing at 1 µM gave an inhibition of 95%.
